{
  "source": "patent US20030152647A1",
  "about": "“Safe botanical drug for treating malignant pleural effusion and cancer and increasing immune function” (priority 2002, published 2003)",
  "test_system": "peritoneal macrophage",
  "assay": "Phagocytosis of peritoneal macrophage in mice",
  "format": "in vivo",
  "conditions": "drugs subcutaneously daily for 7 days",
  "procedure": "Added 0.02 ml of 5% washed chick red blood cell suspension to 0.5 ml of the peritoneal exudate, shaken gently to mix and incubated at 37° C. for 5 minutes. Dipped two coverslips, closed to each other, in the above mixture and incubate for 30 minutes for the migration of the macrophages along the coverslips then fixed and stained with Sharma stain. Examined microscopically for: Phagocytic rate—number of macrophages with phagocytized chick red blood cells per 100 macrophages counted.\nMethod of animal model was regular. The drugs were injected subcutaneously daily for 7 days.",
  "data": [
    {"smiles": "O=P1(N(CCCl)CCCl)NCCCO1", "note": "(stereo not shown) [CY, Cyclophosphamide]", "values": [
      {"measurement": "Phagocytic rate (x + SD, %)", "value": "7.52 ± 0.46", "unit": "%"}
    ]}
  ]
}
